{"source": "patent US20260027116A1", "about": "“Methods of Treating Chronic Graft-Versus-Host Disease Following Allogeneic Hematopoietic Stem Cell Transplantation” (Kadmon Corporation, LLC, priority 2022, published 2026)", "tested_on": "patients with cGVHD", "details": "Cohort 2 200 mg BID"}
{"smiles": "CC(C)NC(=O)COc1cccc(-c2nc(Nc3ccc4[nH]ncc4c3)c3ccccc3n2)c1", "note": "[Belumosudil, 2-{3-[4-(1H-indazol-5-ylamino)-2-quinazolinyl]phenoxy}-N-(propan-2-yl) acetamide]", "values": [{"measurement": "Macular degeneration: Affected/At Risk (%)", "value": "1/16 (6.25%)"}, {"measurement": "Migraine: # Events", "value": 1}, {"measurement": "Migraine: Affected/At Risk (%)", "value": "1/16 (6.25%)"}, {"measurement": "Muscle spasms: # Events", "value": 0}, {"measurement": "Muscle spasms: Affected/At Risk (%)", "value": "0/16 (0%)"}, {"measurement": "Muscle spasticity: # Events", "value": 0}, {"measurement": "Muscle spasticity: Affected/At Risk (%)", "value": "0/16 (0%)"}, {"measurement": "Muscular weakness: # Events", "value": 1}, {"measurement": "Muscular weakness: Affected/At Risk (%)", "value": "1/16 (6.25%)"}, {"measurement": "Musculoskeletal chest pain: # Events", "value": 0}, {"measurement": "Musculoskeletal chest pain: Affected/At Risk (%)", "value": "0/16 (0%)"}, {"measurement": "Myalgia: # Events", "value": 1}, {"measurement": "Myalgia: Affected/At Risk (%)", "value": "1/16 (6.25%)"}, {"measurement": "Nail disorder: # Events", "value": 0}, {"measurement": "Nail disorder: Affected/At Risk (%)", "value": "0/16 (0%)"}, {"measurement": "Nasal congestion: Affected/At Risk (%)", "value": "0/16 (0%)"}, {"measurement": "Nausea: # Events", "value": 6}, {"measurement": "Nausea: Affected/At Risk (%)", "value": "4/16 (25%)"}, {"measurement": "Neck pain: # Events", "value": 0}, {"measurement": "Neck pain: Affected/At Risk (%)", "value": "0/16 (0%)"}, {"measurement": "Nephrotic syndrome: # Events", "value": 1}, {"measurement": "Nephrotic syndrome: Affected/At Risk (%)", "value": "1/16 (6.25%)"}, {"measurement": "Neuropathy peripheral: # Events", "value": 1}, {"measurement": "Neuropathy peripheral: Affected/At Risk (%)", "value": "1/16 (6.25%)"}, {"measurement": "Neutrophil count decreased: # Events", "value": 0}, {"measurement": "Neutrophil count decreased: Affected/At Risk (%)", "value": "0/16 (0%)"}, {"measurement": "Nocturia: # Events", "value": 0}, {"measurement": "Nocturia: Affected/At Risk (%)", "value": "0/16 (0%)"}, {"measurement": "Non-cardiac chest pain: # Events", "value": 3}, {"measurement": "Non-cardiac chest pain: Affected/At Risk (%)", "value": "3/16 (18.75%)"}, {"measurement": "Obesity: # Events", "value": 0}, {"measurement": "Obesity: Affected/At Risk (%)", "value": "0/16 (0%)"}, {"measurement": "Oedema peripheral: # Events", "value": 5}, {"measurement": "Oedema peripheral: Affected/At Risk (%)", "value": "4/16 (25%)"}, {"measurement": "Oedema: # Events", "value": 1}, {"measurement": "Oedema: Affected/At Risk (%)", "value": "1/16 (6.25%)"}, {"measurement": "Oesophageal ulcer: # Events", "value": 1}, {"measurement": "Oesophageal ulcer: Affected/At Risk (%)", "value": "1/16 (6.25%)"}, {"measurement": "Oral candidiasis: # Events", "value": 1}, {"measurement": "Oral candidiasis: Affected/At Risk (%)", "value": "1/16 (6.25%)"}, {"measurement": "Oropharyngeal pain: # Events", "value": 0}, {"measurement": "Oropharyngeal pain: Affected/At Risk (%)", "value": "0/16 (0%)"}, {"measurement": "Orthopnoea: # Events", "value": 0}, {"measurement": "Orthopnoea: Affected/At Risk (%)", "value": "0/16 (0%)"}, {"measurement": "Osteonecrosis: # Events", "value": 0}, {"measurement": "Osteonecrosis: Affected/At Risk (%)", "value": "0/16 (0%)"}, {"measurement": "Osteopenia: # Events", "value": 1}, {"measurement": "Osteopenia: Affected/At Risk (%)", "value": "1/16 (6.25%)"}, {"measurement": "Osteoporosis: # Events", "value": 1}, {"measurement": "Osteoporosis: Affected/At Risk (%)", "value": "1/16 (6.25%)"}, {"measurement": "Overdose: # Events", "value": 0}, {"measurement": "Overdose: Affected/At Risk (%)", "value": "0/16 (0%)"}, {"measurement": "Pain in extremity: # Events", "value": 3}, {"measurement": "Pain in extremity: Affected/At Risk (%)", "value": "2/16 (12.5%)"}, {"measurement": "Pain: # Events", "value": 0}, {"measurement": "Pain: Affected/At Risk (%)", "value": "0/16 (0%)"}, {"measurement": "Palpitations: # Events", "value": 0}, {"measurement": "Palpitations: Affected/At Risk (%)", "value": "0/16 (0%)"}, {"measurement": "Paraesthesia: # Events", "value": 1}, {"measurement": "Paraesthesia: Affected/At Risk (%)", "value": "1/16 (6.25%)"}, {"measurement": "Pericardial effusion: # Events", "value": 0}, {"measurement": "Pericardial effusion: Affected/At Risk (%)", "value": "0/16 (0%)"}, {"measurement": "Peripheral coldness: # Events", "value": 0}, {"measurement": "Peripheral coldness: Affected/At Risk (%)", "value": "0/16 (0%)"}, {"measurement": "Peripheral sensory neuropathy: # Events", "value": 1}, {"measurement": "Peripheral sensory neuropathy: Affected/At Risk (%)", "value": "1/16 (6.25%)"}, {"measurement": "Phlebitis: # Events", "value": 1}, {"measurement": "Phlebitis: Affected/At Risk (%)", "value": "1/16 (6.25%)"}, {"measurement": "Photophobia: # Events", "value": 1}, {"measurement": "Photophobia: Affected/At Risk (%)", "value": "1/16 (6.25%)"}, {"measurement": "Platelet count decreased: # Events", "value": 0}, {"measurement": "Platelet count decreased: Affected/At Risk (%)", "value": "0/16 (0%)"}, {"measurement": "Pleural effusion: # Events", "value": 0}, {"measurement": "Pleural effusion: Affected/At Risk (%)", "value": "0/16 (0%)"}, {"measurement": "Pneumonia respiratory syncytial viral: # Events", "value": 1}, {"measurement": "Pneumonia respiratory syncytial viral: Affected/At Risk (%)", "value": "1/16 (6.25%)"}, {"measurement": "Pneumonia: # Events", "value": 3}, {"measurement": "Pneumonia: Affected/At Risk (%)", "value": "3/16 (18.75%)"}, {"measurement": "Pollakiuria: # Events", "value": 0}, {"measurement": "Pollakiuria: Affected/At Risk (%)", "value": "0/16 (0%)"}, {"measurement": "Presyncope: # Events", "value": 3}, {"measurement": "Presyncope: Affected/At Risk (%)", "value": "3/16 (18.75%)"}, {"measurement": "Productive cough: # Events", "value": 7}, {"measurement": "Productive cough: Affected/At Risk (%)", "value": "2/16 (12.5%)"}, {"measurement": "Proteinuria: # Events", "value": 1}, {"measurement": "Proteinuria: Affected/At Risk (%)", "value": "1/16 (6.25%)"}, {"measurement": "Pruritus: # Events", "value": 4}, {"measurement": "Pruritus: Affected/At Risk (%)", "value": "2/16 (12.5%)"}, {"measurement": "Pseudomonas infection: # Events", "value": 2}, {"measurement": "Pseudomonas infection: Affected/At Risk (%)", "value": "1/16 (6.25%)"}, {"measurement": "Pulmonary mass: # Events", "value": 1}, {"measurement": "Pulmonary mass: Affected/At Risk (%)", "value": "1/16 (6.25%)"}, {"measurement": "Pyrexia: # Events", "value": 6}, {"measurement": "Pyrexia: Affected/At Risk (%)", "value": "3/16 (18.75%)"}, {"measurement": "Rash erythematous: # Events", "value": 1}, {"measurement": "Rash erythematous: Affected/At Risk (%)", "value": "1/16 (6.25%)"}, {"measurement": "Rash maculo-papular: # Events", "value": 0}, {"measurement": "Rash maculo-papular: Affected/At Risk (%)", "value": "0/16 (0%)"}, {"measurement": "Rash pustular: # Events", "value": 1}, {"measurement": "Rash pustular: Affected/At Risk (%)", "value": "1/16 (6.25%)"}, {"measurement": "Rash: # Events", "value": 1}, {"measurement": "Rash: Affected/At Risk (%)", "value": "1/16 (6.25%)"}, {"measurement": "Red blood cells urine positive: # Events", "value": 1}, {"measurement": "Red blood cells urine positive: Affected/At Risk (%)", "value": "1/16 (6.25%)"}, {"measurement": "Renal failure: # Events", "value": 1}, {"measurement": "Renal failure: Affected/At Risk (%)", "value": "1/16 (6.25%)"}, {"measurement": "Respiratory syncytial virus infection: # Events", "value": 1}, {"measurement": "Respiratory syncytial virus infection: Affected/At Risk (%)", "value": "1/16 (6.25%)"}, {"measurement": "Respiratory tract infection fungal: # Events", "value": 0}, {"measurement": "Respiratory tract infection fungal: Affected/At Risk (%)", "value": "0/16 (0%)"}, {"measurement": "Respiratory tract infection: # Events", "value": 0}, {"measurement": "Respiratory tract infection: Affected/At Risk (%)", "value": "0/16 (0%)"}, {"measurement": "Restless legs syndrome: # Events", "value": 1}, {"measurement": "Restless legs syndrome: Affected/At Risk (%)", "value": "1/16 (6.25%)"}, {"measurement": "Rosacea: # Events", "value": 1}, {"measurement": "Rosacea: Affected/At Risk (%)", "value": "1/16 (6.25%)"}, {"measurement": "SAE, No. (%)", "value": "6 (38)"}, {"measurement": "Sinus pain: # Events", "value": 0}, {"measurement": "Sinus pain: Affected/At Risk (%)", "value": "0/16 (0%)"}, {"measurement": "Sinusitis: # Events", "value": 4}, {"measurement": "Sinusitis: Affected/At Risk (%)", "value": "2/16 (12.5%)"}, {"measurement": "Skin abrasion: # Events", "value": 0}, {"measurement": "Skin abrasion: Affected/At Risk (%)", "value": "0/16 (0%)"}, {"measurement": "Skin lesion: # Events", "value": 1}, {"measurement": "Skin lesion: Affected/At Risk (%)", "value": "1/16 (6.25%)"}, {"measurement": "Skin papilloma: # Events", "value": 0}, {"measurement": "Skin papilloma: Affected/At Risk (%)", "value": "0/16 (0%)"}, {"measurement": "Spinal compression fracture: # Events", "value": 0}, {"measurement": "Spinal compression fracture: Affected/At Risk (%)", "value": "0/16 (0%)"}, {"measurement": "Squamous cell carcinoma of skin: # Events", "value": 2}, {"measurement": "Squamous cell carcinoma of skin: Affected/At Risk (%)", "value": "2/16 (12.5%)"}, {"measurement": "Stomatitis: # Events", "value": 1}, {"measurement": "Stomatitis: Affected/At Risk (%)", "value": "1/16 (6.25%)"}, {"measurement": "Superior vena cava syndrome: # Events", "value": 2}, {"measurement": "Superior vena cava syndrome: Affected/At Risk (%)", "value": "1/16 (6.25%)"}, {"measurement": "TEAE, participants (%)", "value": "16 (100%) participants"}, {"measurement": "TESAE, participants (%)", "value": "6 (38%) participants"}, {"measurement": "Tachycardia: # Events", "value": 0}, {"measurement": "Tachycardia: Affected/At Risk (%)", "value": "0/16 (0%)"}, {"measurement": "Tendonitis: # Events", "value": 1}, {"measurement": "Tendonitis: Affected/At Risk (%)", "value": "1/16 (6.25%)"}, {"measurement": "Testicular pain: # Events", "value": 0}, {"measurement": "Testicular pain: Affected/At Risk (%)", "value": "0/16 (0%)"}, {"measurement": "Testicular swelling: # Events", "value": 0}, {"measurement": "Testicular swelling: Affected/At Risk (%)", "value": "0/16 (0%)"}, {"measurement": "Thoracic spinal stenosis: # Events", "value": 0}, {"measurement": "Thoracic spinal stenosis: Affected/At Risk (%)", "value": "0/16 (0%)"}, {"measurement": "Thrombocytopenia: # Events", "value": 1}, {"measurement": "Thrombocytopenia: Affected/At Risk (%)", "value": "1/16 (6.25%)"}, {"measurement": "Thrombocytosis: # Events", "value": 0}, {"measurement": "Thrombocytosis: Affected/At Risk (%)", "value": "0/16 (0%)"}, {"measurement": "Tinea pedis: # Events", "value": 1}, {"measurement": "Tinea pedis: Affected/At Risk (%)", "value": "1/16 (6.25%)"}, {"measurement": "Tooth fracture: # Events", "value": 1}, {"measurement": "Tooth fracture: Affected/At Risk (%)", "value": "1/16 (6.25%)"}, {"measurement": "Total other adverse events: Affected/At Risk (%)", "value": "16/16 (100%)"}, {"measurement": "Transfusion reaction: # Events", "value": 0}, {"measurement": "Transfusion reaction: Affected/At Risk (%)", "value": "0/16 (0%)"}, {"measurement": "Tremor: # Events", "value": 2}, {"measurement": "Tremor: Affected/At Risk (%)", "value": "1/16 (6.25%)"}, {"measurement": "Type 2 diabetes mellitus: # Events", "value": 0}, {"measurement": "Type 2 diabetes mellitus: Affected/At Risk (%)", "value": "0/16 (0%)"}, {"measurement": "Ulcerative keratitis: # Events", "value": 1}, {"measurement": "Ulcerative keratitis: Affected/At Risk (%)", "value": "1/16 (6.25%)"}, {"measurement": "Upper respiratory tract infection: # Events", "value": 13}, {"measurement": "Upper respiratory tract infection: Affected/At Risk (%)", "value": "9/16 (56.25%)"}, {"measurement": "Upper-airway cough syndrome: # Events", "value": 2}, {"measurement": "Upper-airway cough syndrome: Affected/At Risk (%)", "value": "2/16 (12.5%)"}, {"measurement": "Urinary retention: # Events", "value": 2}]}
